Data published in patent publication US20230357168A1, “CARBOBICYCLIC NUCLEOSIDES FOR TREATMENT OF VIRAL INFECTION” (The Chinese University of Hong Kong, priority 2022, published 2023).

Test system: SARS-CoV-2 viral strains (including the original Wuhan strain and Delta and Omicron variants)
Test: Replication of SARS-CoV-2 viral strains in A549-ACE2 cell model (FIG. 2)
Type: cell-based
Settings: done in triplicate

With O=c1[nH]/c(=N\O)ccn1[C@@H]1C2=CCC[C@@H](O)[C@@H]2[C@@H](O)[C@H]1O [Compound 48, 4-(hydroxyimino)-1-((1R,2S,3R,3aR,4R)-2,3,4-trihydroxy-2,3,3a,4,5,6-hexahydro-1H-inden-1-yl)-3,4-dihydropyrimidin-2(1H)-one] the “replication of different SARS-CoV-2 viral strains” value was “inhibits the replication”.
